Assay results from ChEMBL document CHEMBL4049411, “Rational Design, Synthesis, and Biological Evaluation of Heterocyclic Quinolones Targeting the Respiratory Chain of Mycobacterium tuberculosis” (J Med Chem, 2017).
Values after ≈ are worked out from the molar mass of the structure shown.

Tests used:
[1] = (§1) Inhibition of replicating Mycobacterium tuberculosis H37Rv NDH assessed as cell growth inhibition after 7 days by MABA method; conditions: 168 h
[2] = Inhibition of Mycobacterium tuberculosis NDH by HTS-based assay
[3] = tested on: Mycobacterium tuberculosis; assay: Growth inhibition of replicating Mycobacterium tuberculosis H37Rv at 5 uM after 7 days by MABA method relative to control; format: functional; conditions: 168 h, read-out: GI
[4] = Solubility of compound at pH 1; format: physicochemical; conditions: buffer
[5] = Apparent permeability across apical to basolateral side in human Caco2 cells at 5 uM measured up to 180 mins by LC-MS/MS analysis; format: ADME, cell-based; conditions: Caco-2
[6] = Half life in rat plasma at 1 uM measured up to 3 hrs by LC-MS/MS analysis; format: ADME, cell-free
[7] = Half life in human plasma at 1 uM measured up to 3 hrs by LC-MS/MS analysis; format: ADME, cell-free
[8] = Protein binding in human plasma at 1 uM after 18 hrs by equilibrium dialysis; format: ADME, cell-free; conditions: read-out: PPB (converted)
[9] = Solubility of compound at pH 7.4; format: physicochemical; conditions: buffer
[10] = Solubility of compound in Middlebrook 7H9 broth media containing 10% albumin-dextrose-catalase solution; format: physicochemical
[11] = Aqueous solubility of compound; format: physicochemical; conditions: buffer
[12] = Lipophilicity, logD of compound at pH 7.4; conditions: buffer
[13] = Intrinsic clearance in human microsomes; format: ADME, Microsome; conditions: read-out: CLH
[14] = Intrinsic clearance in rat hepatocytes assessed per million cells; format: ADME, cell-based, Hepatocyte; conditions: read-out: CLH
[15] = Drug level in Sprague-Dawley rat urine treated with 2-(4-(3,3-Difluoropyrrolidin-1-yl)phenyl)-5,7-difluoro-3-methylquinolin-4-yl acetate at 50 mg/kg, po via gavage up to 9 hrs by HPLC analysis; format: ADME, organism-based; conditions: in vivo
[16] = Drug level in Sprague-Dawley rat bile treated with 2-(4-(3,3-Difluoropyrrolidin-1-yl)phenyl)-5,7-difluoro-3-methylquinolin-4-yl acetate at 50 mg/kg, po via gavage up to 9 hrs by HPLC analysis; format: ADME, organism-based; conditions: in vivo
[17] = Retention time of compound by HPLC anlaysis
[18] = tested on: Mycobacterium tuberculosis H37Rv; assay: as §1
[19] = tested on: HepG2; assay: Cytotoxicity against human HepG2 cells after 24 hrs in presence of glucose by MTT assay; format: cell-based; conditions: hepg2, 24 h
[20] = Metabolic stability in human liver microsomes assessed as half life for metabolic turnover at 0.1 to 10 uM preincubated for 60 mins in presence of NADPH measured up to 60 mins by mass spectroscopic analysis; format: ADME, microsome
[21] = Metabolic stability in mouse liver microsomes assessed as half life for metabolic turnover at 0.1 to 10 uM preincubated for 60 mins in presence of NADPH measured up to 60 mins by mass spectroscopic analysis; format: ADME, microsome
[22] = Metabolic stability in rat liver microsomes assessed as half life for metabolic turnover at 0.1 to 10 uM preincubated for 60 mins in presence of NADPH measured up to 60 mins by mass spectroscopic analysis; format: ADME, microsome
[23] = tested on: Mycobacterium tuberculosis; assay: Growth inhibition of dormant Mycobacterium tuberculosis H37Rv incubated for 7 days under anaerobic condition followed incubation under aerobic condition for 7 days by MABA; format: functional; conditions: 168 h
[24] = Intrinsic clearance in mouse microsomes; format: ADME, Microsome; conditions: read-out: CLH
[25] = Intrinsic clearance in rat microsomes; format: ADME, Microsome; conditions: read-out: CLH
[26] = Apparent permeability across basolateral to apical side in human Caco2 cells at 5 uM measured up to 180 mins by LC-MS/MS analysis; format: ADME, cell-based; conditions: Caco-2
[27] = biological target: T1, CYP2C8 (Homo sapiens, UniProt P10632); assay: Inhibition of human microsomal CYP2C8 expressed in insect cells at 10 uM using DBOMF as substrate measured every minute for 1 hr by fluorescence-based assay; format: ADME; conditions: probe DBOMF
T1 sequence (P10632 whole entry): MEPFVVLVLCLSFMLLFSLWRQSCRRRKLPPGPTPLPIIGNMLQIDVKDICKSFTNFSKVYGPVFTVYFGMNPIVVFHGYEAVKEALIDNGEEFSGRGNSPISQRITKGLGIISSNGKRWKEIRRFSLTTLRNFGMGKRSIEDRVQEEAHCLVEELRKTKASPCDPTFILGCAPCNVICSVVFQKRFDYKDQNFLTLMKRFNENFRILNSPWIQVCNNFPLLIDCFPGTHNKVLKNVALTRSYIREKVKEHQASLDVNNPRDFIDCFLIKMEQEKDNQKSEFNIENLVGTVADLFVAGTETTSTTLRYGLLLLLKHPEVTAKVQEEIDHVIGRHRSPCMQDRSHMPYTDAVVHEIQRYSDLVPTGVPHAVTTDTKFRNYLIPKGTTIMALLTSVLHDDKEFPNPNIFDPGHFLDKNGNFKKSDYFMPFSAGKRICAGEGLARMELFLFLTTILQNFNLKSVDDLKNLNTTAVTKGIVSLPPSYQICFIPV

[28] = biological target: CYP2C9 (Homo sapiens, UniProt P11712); assay: Inhibition of human microsomal CYP2C9 expressed in insect cells at 10 uM using OOMR as substrate measured every minute for 1 hr by fluorescence-based assay; format: ADME; conditions: probe OOMR
Sequence of CYP2C9 (P11712 whole entry): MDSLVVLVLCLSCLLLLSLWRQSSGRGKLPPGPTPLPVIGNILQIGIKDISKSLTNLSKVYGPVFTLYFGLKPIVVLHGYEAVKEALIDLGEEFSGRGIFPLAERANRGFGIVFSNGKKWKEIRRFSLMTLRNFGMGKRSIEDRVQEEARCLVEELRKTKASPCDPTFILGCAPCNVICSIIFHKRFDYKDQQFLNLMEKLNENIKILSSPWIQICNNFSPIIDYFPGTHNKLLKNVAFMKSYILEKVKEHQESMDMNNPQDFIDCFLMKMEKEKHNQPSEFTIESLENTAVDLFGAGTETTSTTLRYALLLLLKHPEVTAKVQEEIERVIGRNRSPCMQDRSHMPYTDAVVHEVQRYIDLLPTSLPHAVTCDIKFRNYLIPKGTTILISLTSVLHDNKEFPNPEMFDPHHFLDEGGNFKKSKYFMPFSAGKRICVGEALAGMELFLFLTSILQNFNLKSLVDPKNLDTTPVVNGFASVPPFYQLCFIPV

[29] = biological target: CYP2D6 (Homo sapiens, UniProt P10635); assay: Inhibition of human microsomal CYP2D6 expressed in insect cells at 10 uM using MOBFC as substrate measured every minute for 1 hr by fluorescence-based assay; format: ADME; conditions: probe MOBFC
Sequence of CYP2D6 (P10635 whole entry): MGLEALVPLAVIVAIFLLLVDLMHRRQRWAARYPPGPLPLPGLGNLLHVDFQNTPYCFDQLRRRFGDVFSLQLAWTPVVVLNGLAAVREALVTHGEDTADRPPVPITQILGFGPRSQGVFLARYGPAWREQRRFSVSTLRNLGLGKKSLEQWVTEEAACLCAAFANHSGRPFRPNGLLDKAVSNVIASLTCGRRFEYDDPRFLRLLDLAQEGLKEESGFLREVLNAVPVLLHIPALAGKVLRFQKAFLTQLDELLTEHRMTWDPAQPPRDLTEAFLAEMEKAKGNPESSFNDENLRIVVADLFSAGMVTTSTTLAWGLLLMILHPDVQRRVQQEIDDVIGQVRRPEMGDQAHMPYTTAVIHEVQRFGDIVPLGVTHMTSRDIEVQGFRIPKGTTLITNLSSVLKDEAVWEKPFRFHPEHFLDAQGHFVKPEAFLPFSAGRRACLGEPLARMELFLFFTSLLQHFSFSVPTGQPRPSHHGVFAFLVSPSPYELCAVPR

[30] = biological target: CYP3A4 (Homo sapiens, UniProt P08684); assay: Inhibition of human microsomal CYP3A4 expressed in insect cells at 10 uM using BOMCC as substrate measured every minute for 1 hr by fluorescence-based assay; format: ADME; conditions: probe BOMCC
Sequence of CYP3A4 (P08684 whole entry): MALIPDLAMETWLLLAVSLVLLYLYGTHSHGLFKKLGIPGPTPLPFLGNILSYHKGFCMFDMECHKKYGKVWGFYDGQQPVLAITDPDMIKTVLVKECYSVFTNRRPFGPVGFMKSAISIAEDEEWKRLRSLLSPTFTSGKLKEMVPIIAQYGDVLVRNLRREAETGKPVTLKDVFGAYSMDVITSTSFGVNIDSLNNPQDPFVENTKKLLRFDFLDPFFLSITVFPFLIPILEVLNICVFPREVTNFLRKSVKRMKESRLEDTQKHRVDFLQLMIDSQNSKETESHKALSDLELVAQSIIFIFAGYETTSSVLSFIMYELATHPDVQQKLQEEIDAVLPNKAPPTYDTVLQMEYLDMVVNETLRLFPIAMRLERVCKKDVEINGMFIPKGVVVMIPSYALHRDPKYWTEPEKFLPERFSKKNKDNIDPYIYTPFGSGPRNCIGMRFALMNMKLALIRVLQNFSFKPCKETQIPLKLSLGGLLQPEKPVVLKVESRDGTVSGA

[31] = biological target: CYP3A5 (Homo sapiens, UniProt P20815); assay: Inhibition of human microsomal CYP3A5 expressed in insect cells at 10 uM using BOMCC as substrate measured every minute for 1 hr by fluorescence-based assay; format: ADME; conditions: probe BOMCC
Sequence of CYP3A5 (P20815 whole entry): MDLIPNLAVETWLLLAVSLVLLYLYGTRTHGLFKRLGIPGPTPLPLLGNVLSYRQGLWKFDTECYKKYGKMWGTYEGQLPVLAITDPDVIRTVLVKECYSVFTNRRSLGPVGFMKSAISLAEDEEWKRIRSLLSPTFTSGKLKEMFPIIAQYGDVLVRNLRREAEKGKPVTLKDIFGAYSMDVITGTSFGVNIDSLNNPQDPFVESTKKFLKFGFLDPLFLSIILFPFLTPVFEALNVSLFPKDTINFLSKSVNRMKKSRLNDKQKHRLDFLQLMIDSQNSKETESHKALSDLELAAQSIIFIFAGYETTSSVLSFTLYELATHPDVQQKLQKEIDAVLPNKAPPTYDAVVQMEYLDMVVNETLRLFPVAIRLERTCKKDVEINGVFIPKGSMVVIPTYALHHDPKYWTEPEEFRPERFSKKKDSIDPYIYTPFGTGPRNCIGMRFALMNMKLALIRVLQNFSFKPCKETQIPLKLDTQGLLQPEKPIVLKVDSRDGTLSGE

[32] = biological target: Voltage-gated inwardly rectifying potassium channel KCNH2 (Homo sapiens, UniProt Q12809); assay: Inhibition of human ERG
Sequence of Voltage-gated inwardly rectifying potassium channel KCNH2 (Q12809 whole entry): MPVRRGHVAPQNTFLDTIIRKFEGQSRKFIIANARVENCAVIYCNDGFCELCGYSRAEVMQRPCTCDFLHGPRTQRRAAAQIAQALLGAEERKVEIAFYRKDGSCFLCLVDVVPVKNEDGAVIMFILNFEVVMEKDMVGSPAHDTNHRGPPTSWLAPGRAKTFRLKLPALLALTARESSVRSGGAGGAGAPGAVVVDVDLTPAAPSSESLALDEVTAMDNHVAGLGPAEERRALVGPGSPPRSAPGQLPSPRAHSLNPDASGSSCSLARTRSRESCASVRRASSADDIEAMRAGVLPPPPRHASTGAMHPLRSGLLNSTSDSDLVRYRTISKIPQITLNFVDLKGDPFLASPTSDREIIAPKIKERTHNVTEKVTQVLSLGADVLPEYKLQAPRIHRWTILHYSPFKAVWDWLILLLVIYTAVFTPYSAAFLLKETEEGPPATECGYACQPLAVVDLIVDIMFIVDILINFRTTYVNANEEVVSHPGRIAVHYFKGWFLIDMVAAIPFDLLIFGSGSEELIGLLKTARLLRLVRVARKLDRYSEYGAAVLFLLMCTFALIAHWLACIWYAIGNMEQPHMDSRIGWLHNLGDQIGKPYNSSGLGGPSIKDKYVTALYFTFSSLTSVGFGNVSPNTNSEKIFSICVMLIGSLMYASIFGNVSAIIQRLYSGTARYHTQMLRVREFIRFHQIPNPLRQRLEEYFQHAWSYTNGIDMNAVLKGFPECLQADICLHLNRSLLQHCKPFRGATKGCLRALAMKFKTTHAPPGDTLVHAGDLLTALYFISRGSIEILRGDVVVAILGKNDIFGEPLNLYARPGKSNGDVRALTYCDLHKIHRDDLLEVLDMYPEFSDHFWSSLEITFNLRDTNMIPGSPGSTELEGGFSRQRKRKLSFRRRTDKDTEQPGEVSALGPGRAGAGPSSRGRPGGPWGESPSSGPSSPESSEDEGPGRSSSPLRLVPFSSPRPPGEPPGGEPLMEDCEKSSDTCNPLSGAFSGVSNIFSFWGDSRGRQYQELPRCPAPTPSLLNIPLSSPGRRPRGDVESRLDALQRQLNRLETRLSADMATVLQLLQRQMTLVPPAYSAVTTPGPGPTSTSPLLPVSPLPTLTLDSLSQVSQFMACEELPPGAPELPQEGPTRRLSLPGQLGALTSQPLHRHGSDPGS

[33] = tested on: Salmonella typhimurium; assay: Mutagenicity in Salmonella typhimurium by Ames test; format: toxicity; conditions: salmonella enterica subsp. enterica serovar typhimurium

| SMILES | IC50 [1] [µM] | solubility [4] [µg/mL] | Papp A→B at 3 h, 5 µM [5] [×10⁻⁶ cm/s] | half-life at 1 µM [6] [min] | half-life at 1 µM [7] [min] | fraction unbound at 18 h, 1 µM [8] | solubility [9] [µg/mL] | solubility [10] [µg/mL] | solubility [11] [µM] | logD [12] | microsomal CLint [13] [µL/min/mg] | hepatocyte CLint [14] [µL/min/1e6 cells] | IC90 [18] [µM] | Activity [19] [µM] | half-life at up to 10 µM [20] [min] | half-life at up to 10 µM [21] [min] | half-life at up to 10 µM [22] [min] | other results |
| --- | --- | --- | --- | --- | --- | --- | --- | --- | --- | --- | --- | --- | --- | --- | --- | --- | --- | --- |
| COc1ccc2c(=O)c(C)c(-c3ccc(N4CCCCC4)cc3)[nH]c2c1 | 0.73 | – | – | – | – | – | – | – | – | – | – | – | – | – | – | – | – | IC50 [2]: 0.73 µM; inhibition of growth at 5 µM [3]: > 50% |
| Cc1c(-c2ccc(N3CC[C@H](F)C3)cc2)[nH]c2cc(F)cc(F)c2c1=O | 1.8 | < 1 | 15.5 | > 180 | > 180 | 0.0103 to 0.014 | < 1 | 2.5 (≈ 6.98 µM) | 1 (≈ 0.358 µg/mL) | 3.6 | 197 | 150 | – | – | – | – | – | – |
| OCc1c(-c2ccc(N3CC(O)C(F)(F)C3)cc2)nc2cc(F)cc(F)c2c1O (stereo not given) | – | – | – | – | – | – | – | – | – | – | – | – | – | – | – | – | – | Drug metabolism [15]: Metabolite_Detected; Drug metabolism [16]: Metabolite_Detected; Retention time [17]: 8.6 min |
| Cc1c(-c2ccc(N3CCCC(F)C3)cc2)[nH]c2cc(F)cc(F)c2c1=O (stereo not given) | 0.3 to 0.31 | > 150 | 22.9 | > 180 | > 180 | 0.0155 | < 1 | 10 (≈ 26.9 µM) | – | – | – | – | 0.56 | 188.1 | 7.8 | 6.8 | 10.1 | – |
| Cc1c(-c2ccc(-n3cccc3)cc2)[nH]c2cc(F)cc(F)c2c1=O | 0.432 to 0.44 | 5.1 (≈ 15.2 µM) | 31 | > 180 | > 180 | 0.039 | 3.6 (≈ 10.7 µM) | 61 (≈ 181 µM) | – | – | – | – | 0.69 | 141 | 10.2 | 20.7 | 30.1 | – |
| Cc1c(-c2ccc(N3CCC[C@H](C)C3)cc2)[nH]c2cc(F)cc(F)c2c1=O | 0.4 to 0.47 | – | – | – | – | 0.007 | – | – | < 0.3 | > 3.2 | > 300 | 91.2 | 0.66 | 85.54 | 8.54 | 7.65 | 5.72 | – |
| Cc1c(-c2ccc(N3CCC(F)(F)C3)cc2)[nH]c2cc(F)cc(F)c2c1=O | 0.525 to 0.53 | < 1 | 10 | > 180 | > 180 | 0.003 to 0.027 | < 1 | 55 (≈ 146 µM) | 0.2 (≈ 0.0753 µg/mL) | – | 9.52 to 89.7 | 52.2 | 1.1 | > 100 | 72.8 | 115 | 61.6 | IC90 [23]: 0.076 µM; microsomal CLint [24]: 6.03 µL/min/mg; microsomal CLint [25]: 11.2 µL/min/mg; Papp B→A at 3 h, 5 µM [26]: 9.8 ×10⁻⁶ cm/s; inhibition at 1 h, 10 µM [27]: 38%; inhibition at 1 h, 10 µM [28]: 0%; inhibition at 1 h, 10 µM [29]: 0%; inhibition at 1 h, 10 µM [30]: 0%; inhibition at 1 h, 10 µM [31]: 0%; IC50 [32]: > 25 µM; Activity [33]: Non-Toxic; Drug metabolism [15]: Metabolite_Detected; Drug metabolism [16]: Metabolite_Detected; Retention time [17]: 11.4 min |
| Cc1c(-c2ccc(N3CCCCCC3)cc2)[nH]c2cc(F)cc(F)c2c1=O | 0.49 | – | – | – | – | 0.006 | – | – | < 0.1 | 4.8 | > 300 | 243 | – | – | – | – | – | – |
| Cc1c(-c2ccc(N3CCC[C@@H]3CO)cc2)[nH]c2cc(F)cc(F)c2c1=O | 0.32 | – | – | – | – | 0.045 | – | – | 4 (≈ 1.48 µg/mL) | > 3.4 | > 300 | 36.5 | – | – | – | – | – | – |
| Cc1c(-c2ccc(N3CC(O)C(F)(F)C3)cc2)nc2cc(F)cc(F)c2c1O (stereo not given) | – | – | – | – | – | – | – | – | – | – | – | – | – | – | – | – | – | Drug metabolism [15]: Metabolite_Detected; Drug metabolism [16]: Metabolite_Detected; Retention time [17]: 10.1 min |
| Cc1c(-c2ccc(N3CCCCC3)cc2)[nH]c2ccccc2c1=O | 1.5 | – | – | – | – | – | – | – | – | – | – | – | – | – | – | – | – | IC50 [2]: 1.5 µM; inhibition of growth at 5 µM [3]: > 50% |
| Cc1c(-c2ccc(N3CC[C@@H](F)C3)cc2)[nH]c2cc(F)cc(F)c2c1=O | 0.23 to 0.231 | – | – | – | – | 0.009 | – | – | 0.9 (≈ 0.323 µg/mL) | 3.8 | 175 | 118 | 0.5 | 150.6 | 10.2 | 4.4 | 10.6 | – |
| COc1ccc2c(=O)c(Cl)c(-c3ccc(N4CCCCC4)cc3)[nH]c2c1 | 2.82 | – | – | – | – | 0.012 | – | – | 0.5 (≈ 0.184 µg/mL) | 3.6 | > 300 | 48.9 | – | – | – | – | – | – |
